Results: patent US12435061B2 (priority 2020, dated 2025)
Converted amounts (≈) assume the structure as drawn. Read-outs that look alike come from different tables or passages of the source.

What was measured:
hTRPV3 [1] = biological target: T1, hTRPV3 (Homo sapiens (Human), UniProt Q8NET8); assay: Whole-cell patch clamp, hTRPV3 Phase 1 / Phase 2 currents; format: cell-based
Method in brief: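 Currents are activated by 20 μM 2-APB or by perfusate at 28 °C or warmer, in Ringer's solution, and quantified at ±80 mV.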

hTRPV3 [2] = biological target: T1, hTRPV3; assay: hTRPV3 HAMA IC50 assay (Hamamatsu FDSS6000 calcium flux, TRex-293 cells); details: 5 min
Procedure: IC50s were calculated using CBIS from ChemInnovation (San Diego).

[3] = Metabolic Stability assay, rat liver microsomes; format: in vitro ADME
Procedure: Metabolic Stability assay: The metabolic stability was determined by adding compound dissolved in DMSO to human or rat, liver microsomes. Briefly, assays were run with a starting concentration of 1 μM test article. The reaction was started by addition of NADPH regeneration components at 37° C. at which time an aliquot was immediately quenched in ice-cold acetonitrile/MeOH/H2O solution. Reaction mixture was incubated at 37° C. on a shaker, and additional aliquots were taken at 7, 15, 30 and 60 minutes. Following quench and centrifugation, samples were analyzed on HPLC/MS/MS.

[4] = Aqueous solubility assay in Normal Ringer Solution; details: Normal Ringer Solution; for solubility at 40 min: saline or isotonic, kinetic from dmso stock; for Solubility Ringer (nM): room temperature
Procedure: Following vortex and incubation for a sufficient time (e.g. 40 minutes at room temperature), solutions were filtered, quenched with acetonitrile, and analyzed by Liquid Chromotography. Solubility Limits were determined by comparison to a standard curve.

[5] = Phase 1 current, inward, whole-cell patch clamp, read-out: hTRPV3 Patch P1 Inwd
[6] = Phase 1 current, read-out: hTRPV3 (nM) (Phase 1)
[7] = Phase 2 current, inward, whole-cell patch clamp, read-out: hTRPV3 Patch P2 Inwd
[8] = Phase 2 current, read-out: hTRPV3 (nM) (Phase 2)
[9] = Phase 1 current, human TRPV3, read-out: hTRPV3 (nM) Phase 1

T1 sequence (Q8NET8 whole entry): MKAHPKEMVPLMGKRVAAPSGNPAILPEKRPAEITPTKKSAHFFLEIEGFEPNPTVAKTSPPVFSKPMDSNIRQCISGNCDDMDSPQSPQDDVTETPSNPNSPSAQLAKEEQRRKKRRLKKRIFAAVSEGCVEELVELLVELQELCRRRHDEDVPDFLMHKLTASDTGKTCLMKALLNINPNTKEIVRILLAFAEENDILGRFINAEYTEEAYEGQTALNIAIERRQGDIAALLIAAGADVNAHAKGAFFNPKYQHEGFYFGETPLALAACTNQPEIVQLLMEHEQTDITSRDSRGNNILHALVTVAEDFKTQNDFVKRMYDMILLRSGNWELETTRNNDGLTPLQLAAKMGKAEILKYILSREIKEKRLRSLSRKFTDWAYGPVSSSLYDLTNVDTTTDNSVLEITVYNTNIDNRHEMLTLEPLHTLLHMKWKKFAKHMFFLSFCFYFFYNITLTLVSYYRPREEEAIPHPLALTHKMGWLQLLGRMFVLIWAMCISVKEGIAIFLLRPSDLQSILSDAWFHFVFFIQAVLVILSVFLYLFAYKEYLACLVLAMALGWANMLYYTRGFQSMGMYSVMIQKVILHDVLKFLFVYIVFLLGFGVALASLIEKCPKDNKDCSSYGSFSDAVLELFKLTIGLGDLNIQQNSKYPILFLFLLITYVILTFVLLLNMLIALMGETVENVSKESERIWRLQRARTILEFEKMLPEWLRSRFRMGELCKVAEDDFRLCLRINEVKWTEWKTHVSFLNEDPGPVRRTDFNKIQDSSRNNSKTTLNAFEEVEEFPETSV

SMILES: FC(F)(F)c1ccc(O[C@H]2CCN(c3ccccc3-c3ccccc3)C2)nc1 [Compound 1-27, (S)-2-(1-(biphenyl-2-yl)pyrrolidin-3-yloxy)-5-(trifluoromethyl)pyridine]
- IC50 (hTRPV3 [1]; [5]): > 1000 nM
- IC50 (hTRPV3 [1]; [6]): > 3200 nM
- hTRPV3 HAMA IC50 (nM) (5 min) (hTRPV3 [2]): no fit (5 min)

SMILES: FC(F)(F)c1ccc(O[C@@H]2CCN(c3ccccc3-c3ccccc3)C2)nc1 [Compound 1-28, (R)-2-(1-(biphenyl-2-yl)pyrrolidin-3-yloxy)-5-(trifluoromethyl)pyridine]
- IC50 (hTRPV3 [1]; [5]): > 1000 nM
- IC50 (hTRPV3 [1]; [6]): > 3200 nM
- hTRPV3 HAMA IC50 (nM) (5 min) (hTRPV3 [2]): no fit (5 min)

SMILES: N#Cc1cc(-c2ccccc2)ccc1N1CC[C@H](Oc2ccc(C(F)(F)F)cn2)C1 [Compound 1-56, (S)-4-(3-(5-(trifluoromethyl)pyridin-2-yloxy)pyrrolidin-1-yl)biphenyl-3-carbonitrile]
- IC50 (hTRPV3 [1]; [7]): 100 to 1000 nM
- IC50 (hTRPV3 [1]; [8]): ~504 nM
- hTRPV3 HAMA IC50 (nM) (5 min) (hTRPV3 [2]): R2 fail (5 min)

SMILES: O=[N+]([O-])c1ccccc1N1CC[C@H](Oc2ccc3cc(Cl)ccc3n2)C1 [Compound 1-68, (S)-6-chloro-2-(1-(2-nitrophenyl)pyrrolidin-3-yloxy)quinoline]
- IC50 (hTRPV3 [1]; [5]): > 1000 nM
- IC50 (hTRPV3 [1]; [6]): > 3200 nM
- IC50 (hTRPV3 [1]; [7]): > 1000 nM
- IC50 (hTRPV3 [1]; [8]): > 3200 nM
- hTRPV3 HAMA IC50 (nM) (5 min) (hTRPV3 [2]): no fit (5 min)

SMILES: Nc1ccccc1N1CC[C@H](Oc2ccc3cc(Cl)ccc3n2)C1 [Compound 1-69, (S)-2-(3-(6-chloroquinolin-2-yloxy)pyrrolidin-1-yl)aniline]
- hTRPV3 (nM) (Phase 2) (hTRPV3 [1]; Phase 2 current): Agonist (Phase 2)
- hTRPV3 HAMA IC50 (nM) (5 min) (hTRPV3 [2]): no fit (5 in)

SMILES: CC(C)c1ccccc1Oc1ccc(N2CC[C@H](Oc3ccccn3)C2)c(CO)c1 [Compound 1-316]
- IC50 (hTRPV3 [1]; [5]): < 10 nM
- IC50 (hTRPV3 [1]; [6]): 7.77 nM
- half-life at 1 μM ([3]; read-out: LM T1/2 (min) (rat)): 18.9 min
- solubility at 40 min [4]: > 4 µM

SMILES: CC(C)c1ccccc1Oc1ccc(N2CC[C@H](Oc3ccccn3)C2)c(CCO)c1 [Compound 1-317]
- IC50 (hTRPV3 [1]; [5]): 10 to 100 nM
- IC50 (hTRPV3 [1]; [6]): 20.8 nM
- half-life at 1 μM ([3]; read-out: LM T1/2 (min) (rat)): 12.1 min
- Solubility Ringer (nM) [4]: BLQ

SMILES: CC(C)c1ccccc1Oc1ccc(N2CC[C@H](Oc3ncccc3Cl)C2)c(CCO)c1 [Compound 1-327, (S)-2-(2-(3-(3-chloropyridin-2-yloxy)pyrrolidin-1-yl)-5-(2-isopropylphenoxy)phenyl)ethanol]
- IC50 (hTRPV3 [1]; hTRPV3 Patch P1 Inwd (nM)): 10 to 100 nM
- IC50 (hTRPV3 [1]; read-out: hTRPV3 (nM) (Phase 1)): 15.9 nM
- half-life at 1 μM ([3]; read-out: LM T1/2 (min) (rat)): 14.6 min
- Solubility Ringer (nM) [4]: BLQ

SMILES: CCc1c(Cl)ncnc1Oc1ccc(N2CC[C@H](Oc3ncccc3Cl)C2)c(CO)c1 [Compound 1-358, (S)-(5-(6-chloro-5-ethylpyrimidin-4-yloxy)-2-(3-(3-chloropyridin-2-yloxy)pyrrolidin-1-yl)phenyl)methanol]
- IC50 (hTRPV3 [1]; [5]): 100 to 1000 nM
- IC50 (hTRPV3 [1]; [6]): 174 nM
- half-life at 1 μM ([3]; read-out: LM T1/2 (min) (rat)): 16.7 min
- solubility at 40 min [4]: ~2.1 µM (≈ 0.969 µg/mL)

SMILES: NC(=O)c1cc(-c2ccccc2)ccc1N1CC[C@H](Nc2ncccc2Cl)C1 [Compound 1-377, (S)-4-(3-(3-chloropyridin-2-ylamino)pyrrolidin-1-yl)biphenyl-3-carboxamide]
- IC50 (hTRPV3 [1]; [5]): 100 to 1000 nM
- IC50 (hTRPV3 [1]; [6]): 360 nM
- IC50 (hTRPV3 [1]; [7]): 100 to 1000 nM
- IC50 (hTRPV3 [1]; [8]): 318 nM
- half-life at 1 μM ([3]; read-out: LM T1/2 (min) (rat)): 35.6 min
- solubility at 40 min [4]: > 3.2 µM

SMILES: CCc1ccccc1Oc1ccc(N2CC[C@H](Nc3ncccc3Cl)C2)c(CO)c1 [Compound 1-380, (S)-(2-(3-(3-chloropyridin-2-ylamino)pyrrolidin-1-yl)-5-(2-ethylphenoxy)phenyl)methanol]
- IC50 (hTRPV3 [1]; [5]): 10 to 100 nM
- IC50 (hTRPV3 [1]; [6]): 25.6 nM
- half-life at 1 μM ([3]; read-out: LM T1/2 (min) (rat)): 20.9 min
- Solubility Ringer (nM) [4]: BLQ

SMILES: Cc1ccccc1Oc1ccc(N2CC[C@H](Nc3ncccc3Cl)C2)c(CO)c1 [Compound 1-383, (S)-(2-(3-(3-chloropyridin-2-ylamino)pyrrolidin-1-yl)-5-(o-tolyloxy)phenyl)methanol]
- IC50 (hTRPV3 [1]; [5]): 10 to 100 nM
- IC50 (hTRPV3 [1]; [6]): 12.6 nM
- half-life at 1 μM ([3]; read-out: LM T1/2 (min) (rat)): 31.4 min
- solubility at 40 min [4]: ~0.35 µM (≈ 0.143 µg/mL)

SMILES: OCCc1cc(C(O)c2ccccc2Cl)ccc1N1CC[C@H](Nc2ccc(F)cn2)C1 (stereo partly drawn) [Compound 1-390, 2-(5-((2-chlorophenyl)(hydroxy)methyl)-2-((S)-3-(5-fluoropyridin-2-ylamino)pyrrolidin-1-yl)phenyl)ethanol]
- IC50 (hTRPV3 [1]; [5]): 100 to 1000 nM
- IC50 (hTRPV3 [1]; [6]): 219 nM
- half-life at 1 μM ([3]; read-out: LM T1/2 (min) (rat)): 7.23 min
- solubility at 40 min [4]: > 13.6 µM

SMILES: CCc1ccccc1Oc1ccc(N2CC[C@H](OCc3ncccc3C)C2)c(CO)c1 [Compound 1-398]
- IC50 (hTRPV3 [1]; [6]): 187 nM
- IC50 (hTRPV3 [1]; [8]): 64.8 nM
- half-life at 1 μM ([3]; read-out: LM T1/2 (min) (rat)): 5.19 min
- solubility at 40 min [4]: ~1.4 µM (≈ 0.586 µg/mL)

SMILES: CC(C)c1ccccc1-c1ccc(C2CCN(C(=O)c3ccc(Cl)cn3)C2)c(CO)c1 (stereo not drawn) [Compound 2-30]
- IC50 (hTRPV3 [1]; [9]): 2.68 nM
- IC50 (hTRPV3 [1]; [5]): < 10 nM
- half-life at 1 μM ([3]; read-out: LM T1/2 (min) rat): 13.9 min
- solubility at 40 min [4]: ~3.7 µM (≈ 1.61 µg/mL)

SMILES: CC(C)c1ccccc1-c1ccc(C2CCN(C(=O)c3ccc(Cl)cn3)C2)c(C(N)=O)c1 (stereo not drawn) [Compound 2-35]
- IC50 (hTRPV3 [1]; [9]): 61.7 nM
- IC50 (hTRPV3 [1]; [5]): 10 to 100 nM
- IC50 (hTRPV3 [1]; Phase 2 current, human TRPV3, read-out: hTRPV3 (nM) Phase 2): 64.3 nM
- IC50 (hTRPV3 [1]; [7]): 10 to 100 nM
- half-life at 1 μM ([3]; read-out: LM T1/2 (min) rat): 7.16 min
- solubility at 40 min [4]: ~3.3 µM (≈ 1.48 µg/mL)

SMILES: CCc1ccccc1-c1ccc(C2CCN(C(=O)c3ccc(C)cn3)C2)c(CO)c1 (stereo not drawn) [Compound 2-50, (3-(2′-ethyl-3-(hydroxymethyl)biphenyl-4-yl)pyrrolidin-1-yl)(5-methylpyridin-2-yl) methanone]
- IC50 (hTRPV3 [1]; [9]): 89.8 nM
- IC50 (hTRPV3 [1]; [5]): 10 to 100 nM
- half-life at 1 μM ([3]; read-out: LM T1/2 (min) rat): 8.67 min
- solubility at 40 min [4]: ~3.9 µM (≈ 1.56 µg/mL)

SMILES: CCc1ccccc1-c1ccc(C2CCN(C(=O)c3ccc(Cl)cn3)C2)c(CO)c1 (stereo not drawn) [Compound 2-51, (5-chloropyridin-2-yl)(3-(2′-ethyl-3-(hydroxymethyl)biphenyl-4-yl)pyrrolidin-1-yl) methanone]
- IC50 (hTRPV3 [1]; [9]): 7.37 nM
- IC50 (hTRPV3 [1]; [5]): < 10 nM
- half-life at 1 μM ([3]; read-out: LM T1/2 (min) rat): 14.4 min
- solubility at 40 min [4]: ~5.3 µM (≈ 2.23 µg/mL)

SMILES: CCc1cc(C)ccc1-c1ccc(C2CCN(C(=O)c3ccc(Cl)cn3)C2)c(CO)c1 (stereo not drawn) [Compound 2-66, (5-chloropyridin-2-yl)(3-(2′-ethyl-3-(hydroxymethyl)-4′-methylbiphenyl-4-yl)pyrrolidin-1-yl)methanone]
- IC50 (hTRPV3 [1]; [9]): 16.5 nM
- IC50 (hTRPV3 [1]; [5]): 10 to 100 nM
- half-life at 1 μM ([3]; read-out: LM T1/2 (min) rat): 24.9 min
- solubility at 40 min [4]: ~1.9 µM (≈ 0.826 µg/mL)

SMILES: CCc1c(C)cccc1-c1ccc(C2CCN(C(=O)c3ccc(Cl)cn3)C2)c(CO)c1 (stereo not drawn) [Compound 2-67, (5-chloropyridin-2-yl)(3-(2′-ethyl-3-(hydroxymethyl)-3′-methylbiphenyl-4-yl)pyrrolidin-1-yl)methanone]
- IC50 (hTRPV3 [1]; [9]): 0.698 nM
- IC50 (hTRPV3 [1]; [5]): < 10 nM
- half-life at 1 μM ([3]; read-out: LM T1/2 (min) rat): 8.47 min
- solubility at 40 min [4]: ~3.6 µM (≈ 1.57 µg/mL)

SMILES: CCc1ccccc1-c1ccc(C2CCN(C(=O)c3ccc(OC)cn3)C2)c(CO)c1 (stereo not drawn) [Compound 2-73, (3-(2′-ethyl-3-(hydroxymethyl)biphenyl-4-yl)pyrrolidin-1-yl)(5-methoxypyridin-2-yl)methanone]
- IC50 (hTRPV3 [1]; [9]): 20.5 nM
- IC50 (hTRPV3 [1]; [5]): 10 to 100 nM
- half-life at 1 μM ([3]; read-out: LM T1/2 (min) rat): 9.84 min
- solubility at 40 min [4]: > 26.2 µM

SMILES: CC(C)c1ccccc1-c1ccc([C@@H]2CCN(C(=O)c3ccc(F)cn3)C2)c(CO)c1 [Compound 2-77]
- IC50 (hTRPV3 [1]; [9]): 2.27 nM
- IC50 (hTRPV3 [1]; [5]): < 10 nM
- half-life at 1 μM ([3]; read-out: LM T1/2 (min) rat): 9.14 min
- solubility at 40 min [4]: > 15.5 µM

SMILES: CC(C)c1ccccc1-c1ccc([C@H]2CCN(C(=O)c3ccc(F)cn3)C2)c(CO)c1 [Compound 2-78]
- IC50 (hTRPV3 [1]; [9]): 234 nM
- IC50 (hTRPV3 [1]; [5]): 100 to 1000 nM
- half-life at 1 μM ([3]; read-out: LM T1/2 (min) rat): 12.1 min
- solubility at 40 min [4]: > 15.4 µM

SMILES: COc1cnc(C(=O)N2CCC(c3ccc(-c4ccccc4C4CC4)cc3CO)C2)cn1 (stereo not drawn) [Compound 2-107]
- IC50 (hTRPV3 [1]; [9]): 31.5 nM
- IC50 (hTRPV3 [1]; [5]): 10 to 100 nM
- half-life at 1 μM ([3]; read-out: LM T1/2 (min) rat): 25.7 min
- solubility at 40 min [4]: 9.25 µM (≈ 3.97 µg/mL)
